For experiment [1], the target named is T1, PPI between PRRSV GP4 and CD163-SRCR5 domain (Sus scrofa, UniProt Q2VL90).
T1 construct: SRCR5 domain of porcine CD163 receptor was amplified from cDNA of pig cells; expressed in transfected cells; host or cells: HEK293T
Description: BiFC assay GP4/SRCR5. It counts as cell-based, porcine CD163; PRRSV VR2332. The following applies: for Average GP4 (relative fluorescence intensity, SRCR5/GP4 BiFC): 5 μM, HEK293T, 24 h after transfection, relative to NC (DMSO), n=3. How it is done:
(§1) HEK293T cells were cultivated in 6-well plates in FP medium and transfected with 1 μg XpBiFC-VN155 (I152L)-SRCR5 and 1 μg pBiFC-VC155-GP2/GP4 using Fugene6. After 4 h, cells were digested with 0.05% Typsin-EDTA (ThermoFisher Scientific, MA, USA)) and passaged to 48-well plates which were coated with EmbryoMax 0.1% Gelatin Solution (Sigma-Aldrich, MO, USA) and preloaded with 5 μM B7 analogues. Fluorescence images were taken at 24 h after transfection and fluorescence intensity was measured by image J.

For experiment [2], the system named is PRRSV strains NADC30, VR-2332 and Lelystad. Description: PRRSV infection assay in PAMs, qRT-PCR for PRRSV. It counts as cell-based. As to conditions: for inhibitory effect against PRRSV infection (in words): 15 μM, PAMs, qRT-PCR; for antiviral potency, SAR comparison (in words): qRT-PCR and titration in infected PAMs, compared with B7, B7-A4 or G7. How it is done:
PAMs were cultivated in 12-well plates and infected with PRRSV NADC30 strain or Lelystad strain at MOI=0.05 for 1 h. Cells were then incubated with 15 μM B7 analogues for 24 h at 37° C. RNAs were extracted from the PAMs for quantitative reverse transcription-PCR (qRT-PCR) using RNeasy Mini Kits (Qiagen, MD, USA) and supernatants of cells were collected PRRSV titration assay.
RNAs isolated from infected PAMs were reversely transcribed to cDNA using iScript™ cDNA Synthesis Kit (Bio-Rad Laboratories, CA, USA). Specific qRT-PCR primers for ORF7 gene of PRRSV NADC30 and Lelystad strains, and for porcine GAPDH are shown in the Table S2 qRT-PCR reaction was conducted with SYBR Green Supermix (Bimake, TX, USA) using the ABI 7500 Fast Platform (Thermo Fisher Scientific, MA, USA). GAPDH served as the house keeping gene for normalization.
Background: Real-time PCR tracks product formation cycle by cycle.

Experiment [3] deals with T2, PPI between PRRSV glycoprotein GP2a and CD163-SRCR5 (Sus scrofa, UniProt Q2VL90).
T2 construct: SRCR5 domain of porcine CD163 receptor was amplified from cDNA of pig cells; expressed in transfected cells; host or cells: HEK293T
Kind of experiment: BiFC assay GP2a/SRCR5. It counts as cell-based, porcine CD163; PRRSV VR2332. The following applies: 5 μM; for Average GP2a (relative fluorescence intensity, SRCR5/GP2a BiFC): HEK293T, 24 h after transfection, relative to NC (DMSO) = 1.00, n=3. As for the experimental part:
as §1

Experiment [4] addresses T3, GFP-fusion CD163-SRCR5 (GFP-fused SRCR5 domain of porcine CD163, recombinant, expressed in E. coli BL21 (DE3)) (Sus scrofa, UniProt Q2VL90).
T3 construct: GFP and GFP-SRCR2 as controls
Kind of experiment: Microscale thermophoresis (MST) assay: direct association of compounds with purified GFP-fused CD163-SRCR5. It counts as binding. The following applies: Monolith NT.115, blue channel, values represent Mean, N=3. How it is done: The amino acids within the LBP and loop 5-6 regions are underlined. […] B7 was placed in position 1 (Boxes) to show the potential disturbing of both conformations. […] B7 was placed in position 2 (Box) to show the potential disturbing of this conformation. […] Values represent Mean, N=3. […] Values represent Mean, N=3. […] Values represent Mean, N=3.
All chemicals (dissolved in 10 mM in DMSO) were designed and provided by Atomwise, Inc. (CA, USA). Compounds were further diluted in PBS (137 mM NaCl, 2.7 mM KCl, 8 mM Na2HPO4, and 2 mM KH2PO4, pH 7.4, Gibco, MA, USA) to 200 μM as the working solution. Pulmonary alveolar macrophages (PAMs) were harvested from healthy 4-6-month Landrace/Yorkshire pigs. Briefly, pig lungs were removed from euthanized pigs during necropsy and transferred on ice to the lab. 200 mL warm PBS with 200 U/mL penicillin and 200 μg/mL streptomycin was injected into trachea and reached major bronchi of both sides of the lungs. Lungs were then massaged and bronchoalveolar lavage fluid (BALF) was collected. PAMs were harvested from the BALF by centrifugation at 400×g for 15 min and washed in PBS twice. Fresh PAMs were counted and frozen in 90% FBS and 10% DMSO (Sigma-Aldrich, MO) in liquid nitrogen. PAMs were cultivated in RPMI-1640 (Gibco, MA) supplemented with 10% FBS, 2 mM Glutamax, 0.1 mM MEM Non-Essential Amino Acids, 1 mM sodium pyruvate, 100 U/mL penicillin and 100 μg/mL streptomycin, and 0.5 μg/mL Amphotericin B. SRCR5 domain of porcine CD163 receptor was amplified from cDNA of pig cells and inserted into pBiFC-VN155 (I152L). PRRSV GP2a and GP4 were amplified from reverse-transcribed genome of PRRSV VR2332 strain and cloned into pBiFC-VC155 vector as previously described (Huang et al., Virol J 17, 116, 2020). Porcine CD163 was cloned into pMXs vector (Cell Biolabs, CA, USA). For protein purification, […] were cloned into pET28b-GFP (Addgene, MA, USA).
The recombinant pET28b-GFP-SRCR2/SRCR5 constructs were transformed into Escherichia coli strain BL21 (DE3) (New England Biolabs, MA, USA). The transformed clones were cultured at 37° C. in LB broth with […] kanamycin, induced by adding 1 mM isopropyl β-D-1-thiogalactopyranoside at optical density of 0.6-0.8, and then incubated at 37° C. for 3 h. For protein purification, cells were pelleted and resuspended in xTractor Buffer containing DNAse I, lysozyme solution, and Protease Inhibitor Cocktail (Takara Bio USA, Inc., CA). The suspension was sonicated and centrifuged. […]
The purified GFP, GFP-fused SRCR2 or SRCR5 proteins were mixed with serially diluted compounds. The mixtures were loaded to capillaries and the affinity was measured by Monolith NT.115 (NanoTemper Technologies, Inc., CA, USA) at corresponding MST power with the blue channel. […]
(In general: In MST a laser heats a spot of the sample, and binding alters the fluorescence response.)

“Also recorded” adds a separate entry of the source.

T2 sequence (Q2VL90 477-577): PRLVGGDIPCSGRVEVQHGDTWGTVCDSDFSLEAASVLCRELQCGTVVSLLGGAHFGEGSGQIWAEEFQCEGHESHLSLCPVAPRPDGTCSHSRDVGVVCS
T1 sequence (Q2VL90 477-577): as above
T3 sequence (Q2VL90 477-577 limits assumed): as the sequence (Q2VL90 477-577) above

Regarding `COc1ccc(NS(=O)(=O)c2cccc(Nc3nc4ccccc4nc3NS(=O)(=O)c3ccc(F)cc3C)c2)cc1` [E3], in experiment [1], the “Average GP4 (relative fluorescence intensity, SRCR5/GP4 BiFC)” value is given as 0.59. Further, in experiment [2], the “inhibitory effect against PRRSV infection (in words)” value (“inhibitory effect” below) is reported as “low activity” and the “antiviral potency, SAR comparison (in words)” value (shortened to “antiviral potency”) is “near complete loss of antiviral-potency”. Moreover, the “Average GP2a (relative fluorescence intensity, SRCR5/GP2a BiFC)” value in experiment [3] is reported as 0.10.
For the molecule `Cc1ccc(Nc2nc3ccccc3nc2NS(=O)(=O)c2ccc(F)cc2C)cc1` [H1], the “Average GP4 (relative fluorescence intensity, SRCR5/GP4 BiFC)” value in experiment [1] turned out to be 0.94. The “Average GP2a (relative fluorescence intensity, SRCR5/GP2a BiFC)” value in experiment [3] amounted to 0.24.
As to `Cc1ccc(S(=O)(=O)Nc2nc3ccccc3nc2Nc2cccc(S(=O)(=O)N3CCCC3)c2)cc1` [A7], the “Average GP4 (relative fluorescence intensity, SRCR5/GP4 BiFC)” value in experiment [1] is 0.53. Also, in experiment [2], the “inhibitory effect” value is recorded as “strong” and the “antiviral potency” value is “significant drop of its antiviral potency”. Also, the “Average GP2a (relative fluorescence intensity, SRCR5/GP2a BiFC)” value in experiment [3] is listed as 0.07.
On to `Cc1ccccc1S(=O)(=O)Nc1nc2ccccc2nc1Nc1ccc(S(=O)(=O)N2CCOCC2)cc1` [D2], for which the “Average GP4 (relative fluorescence intensity, SRCR5/GP4 BiFC)” value in experiment [1] was 0.23. In experiment [2], the “antiviral potency” value is recorded as “mildly but significantly decreased”. Besides, the “Average GP2a (relative fluorescence intensity, SRCR5/GP2a BiFC)” value in experiment [3] is 0.07.
As for `Cc1cccc(S(=O)(=O)Nc2nc3ccccc3nc2Nc2cccc(F)c2)c1` [C10], the “Average GP4 (relative fluorescence intensity, SRCR5/GP4 BiFC)” value in experiment [1] stood at 0.63. Further, the “Average GP2a (relative fluorescence intensity, SRCR5/GP2a BiFC)” value in experiment [3] was 0.33.
As for `COc1ccccc1NS(=O)(=O)c1cccc(Nc2nc3ccccc3nc2NS(=O)(=O)c2ccc(F)cc2C)c1` [Compound F9], the Kd in experiment [4] is 24.7 µM.
Turning to `COc1ccc(NS(=O)(=O)c2cccc(Nc3nc4ccccc4nc3NS(=O)(=O)c3ccc(F)cc3C)c2)cc1` [Compound E3], in experiment [4], the Kd is 330 µM.
For `Cc1cc(F)ccc1S(=O)(=O)Nc1nc2ccccc2nc1Nc1ccccc1` [G7], in experiment [1], the “Average GP4 (relative fluorescence intensity, SRCR5/GP4 BiFC)” value is 0.71. Moreover, the “antiviral potency” value in experiment [2] is reported as “much lower antiviral effect compared with B7; also recorded: obvious loss of the antiviral activity compared with B7”. In addition, the “Average GP2a (relative fluorescence intensity, SRCR5/GP2a BiFC)” value in experiment [3] is on record as 0.15.
In the case of `COc1ccc(Nc2nc3ccccc3nc2NS(=O)(=O)c2ccc(F)cc2C)cc1Cl` [A3], in experiment [1], the “Average GP4 (relative fluorescence intensity, SRCR5/GP4 BiFC)” value is on record as 0.43. For the same molecule, in experiment [2], the “inhibitory effect” value is “mild” and the “antiviral potency” value is “significantly increased antiviral effect”. Moreover, the “Average GP2a (relative fluorescence intensity, SRCR5/GP2a BiFC)” value in experiment [3] is recorded as 0.06.
Take `O=S(=O)(Nc1nc2ccccc2nc1Nc1ccc(Cl)c(S(=O)(=O)N2CCOCC2)c1)c1ccccc1` [G10]: in experiment [1], the “Average GP4 (relative fluorescence intensity, SRCR5/GP4 BiFC)” value is reported as 0.80. For the same molecule, the “antiviral potency” value in experiment [2] is recorded as “mildly but significantly decreased”. Also, the “Average GP2a (relative fluorescence intensity, SRCR5/GP2a BiFC)” value in experiment [3] was 0.13.
For `Cc1cccc(S(=O)(=O)Nc2nc3ccccc3nc2Nc2cccc(S(=O)(=O)N3CCCCC3)c2)c1` [E10] the same measures were 0.06, “no change in antiviral potency” and 0.06.
On to `Cc1cccc(S(=O)(=O)Nc2nc3ccccc3nc2Nc2cccc(S(=O)(=O)N3CCCCC3)c2)c1` [Compound E10], for which the Kd in experiment [4] was found to be 38 µM.
With `Cc1ccccc1Nc1nc2ccccc2nc1NS(=O)(=O)c1ccc(F)cc1C` [F7], the “Average GP4 (relative fluorescence intensity, SRCR5/GP4 BiFC)” value in experiment [1] was 0.96. The “Average GP2a (relative fluorescence intensity, SRCR5/GP2a BiFC)” value in experiment [3] is on record as 0.30.
With `COc1ccc(Nc2nc3ccccc3nc2NS(=O)(=O)c2ccc(F)cc2C)cc1` [A1], the “Average GP4 (relative fluorescence intensity, SRCR5/GP4 BiFC)” value in experiment [1] is 0.89. Also, in experiment [3], the “Average GP2a (relative fluorescence intensity, SRCR5/GP2a BiFC)” value was 0.63.
As to `Cc1cc(F)ccc1S(=O)(=O)Nc1nc2ccccc2nc1Nc1cccc(Cl)c1` [E7], in experiment [1], the “Average GP4 (relative fluorescence intensity, SRCR5/GP4 BiFC)” value was determined as 0.69. Besides, the “Average GP2a (relative fluorescence intensity, SRCR5/GP2a BiFC)” value in experiment [3] came to 0.10.
Consider `O=S(=O)(Nc1nc2ccccc2nc1Nc1cccc(S(=O)(=O)N2CCCCC2)c1)c1ccccc1` [G4], for which the “Average GP4 (relative fluorescence intensity, SRCR5/GP4 BiFC)” value in experiment [1] is 0.06. In addition, the “antiviral potency” value in experiment [2] is given as “significantly decreased its antiviral potency”. For the same molecule, the “Average GP2a (relative fluorescence intensity, SRCR5/GP2a BiFC)” value in experiment [3] came to 0.04.
With `Cc1cc(F)ccc1S(=O)(=O)Nc1nc2ccccc2nc1Nc1cccc(Cl)c1C` [E4], the “Average GP4 (relative fluorescence intensity, SRCR5/GP4 BiFC)” value in experiment [1] came out at 0.74. In addition, in experiment [3], the “Average GP2a (relative fluorescence intensity, SRCR5/GP2a BiFC)” value is reported as 0.12.
As to `COc1ccccc1NS(=O)(=O)c1cccc(Nc2nc3ccccc3nc2NS(=O)(=O)c2ccc(F)cc2C)c1` [F9], the “Average GP4 (relative fluorescence intensity, SRCR5/GP4 BiFC)” value in experiment [1] is given as 0.07. Further, the “antiviral potency” value in experiment [2] was “did not change at all”. The “Average GP2a (relative fluorescence intensity, SRCR5/GP2a BiFC)” value in experiment [3] is 0.03.
As to `Cc1cc(F)ccc1S(=O)(=O)Nc1nc2ccccc2nc1Nc1cccc(Cl)c1Cl` [F12], in experiment [1], the “interference with the PPI between GP4/SRCR5 (in words)” value is “does not effectively interfere” and the “Average GP4 (relative fluorescence intensity, SRCR5/GP4 BiFC)” value is listed as 0.63. Moreover, in experiment [2], the “inhibitory effect” value is recorded as “strong” and the “antiviral potency” value is on record as “significantly increased antiviral effect; also recorded: antiviral potency nearly identical to B7”. Besides, the “Average GP2a (relative fluorescence intensity, SRCR5/GP2a BiFC)” value in experiment [3] was 0.31. The “inhibition of the PPI between SRCR5-VN and GP2a-VC at pH 6.0 (in words)” value in experiment [3] (pH 6.0) is reported as “inhibit the PPI”.
As to `O=S(=O)(Nc1nc2ccccc2nc1Nc1cccc(S(=O)(=O)N2CCCC2)c1)c1ccccc1` [C6], the “Average GP4 (relative fluorescence intensity, SRCR5/GP4 BiFC)” value in experiment [1] was 0.34. Besides, in experiment [2], the “inhibitory effect” value is “mild”. Further, the “Average GP2a (relative fluorescence intensity, SRCR5/GP2a BiFC)” value in experiment [3] amounted to 0.19.

For orientation: Kd means the constant that tells how readily two partners part at equilibrium.

Source of the values: patent US20240342167A1, “INHIBITORS OF PORCINE REPRODUCTIVE AND RESPIRATORY SYNDROME VIRUS” (University of Connecticut, priority 2023, published 2024).
